Experimental data: ChEMBL document CHEMBL3885861, “Open TG-GATES”

Species: Rattus norvegicus
Assay: Open TG-GATES - Regimen: Daily Repeat
Assay type: toxicity, organism-based, Sprague-Dawley
Set-up: regimen Daily Repeat, gender Male, age 6 weeks
Conditions: in vivo, po, 30 mg/kg, route gavage, dose level Middle; for APTT / Bas / Eos / Fbg / Hb / Ht / Lym / MCH / MCHC / MCV / Mono / Neu / PT / Plat / RBC / Ret / WBC: tissue Blood; for KIDNEY_L / KIDNEY_R / KIDNEY_TOTAL: tissue Kidney; for LIVER: tissue Liver; for A/G / ALP / ALT / AST / BUN / CRE / Ca / Cl / DBIL / GLC / IP / K / LDH / Na / PL / RALB / TBIL / TC / TG / TP / gamma-GTP: tissue Plasma

CC1=C(/C=C/C(C)=C/C=C/C(C)=C/CO)C(C)(C)CCC1 [RETINOL]
TERMINAL_BW (72 h, time 3 day): 230.8 g | APTT (72 h, time 3 day): 23.3 s | Bas (72 h, time 3 day): 0% | Eos (72 h, time 3 day): 0.8% | Fbg (72 h, time 3 day): 299 mg/dL | Hb (72 h, time 3 day): 13.5 g/dL | Ht (72 h, time 3 day): 39% | Lym (72 h, time 3 day): 79.4% | MCH (72 h, time 3 day): 21.5 pg | MCHC (72 h, time 3 day): 34.7% | MCV (72 h, time 3 day): 62 fL | Mono (72 h, time 3 day): 2.4% | Neu (72 h, time 3 day): 16.6% | PT (72 h, time 3 day): 16.8 s | Plat (72 h, time 3 day): 120.5 x10_4/uL | RBC (72 h, time 3 day): 629.4 x10_4/ul | Ret (72 h, time 3 day): 5.6% | WBC (72 h, time 3 day): 103.8 x10_2/uL | KIDNEY_L (72 h, time 3 day): 1 g | KIDNEY_R (72 h, time 3 day): 0.9 g | KIDNEY_TOTAL (72 h, time 3 day): 1.9 g | LIVER (72 h, time 3 day): 11.2 g | A/G (72 h, time 3 day): 1.3 | ALP (72 h, time 3 day): 2028 IU/L | ALT (72 h, time 3 day): 48.8 IU/L | AST (72 h, time 3 day): 78.6 IU/L | BUN (72 h, time 3 day): 19.4 mg/dL | CRE (72 h, time 3 day): 0.2 mg/dL | Ca (72 h, time 3 day): 11 mg/dL | Cl (72 h, time 3 day): 106.8 meq/L | DBIL (72 h, time 3 day): 0.002 mg/dL | GLC (72 h, time 3 day): 188.6 mg/dL | IP (72 h, time 3 day): 6.4 mg/dL | K (72 h, time 3 day): 4.3 meq/L | LDH (72 h, time 3 day): 235.6 IU/L | Na (72 h, time 3 day): 141.2 meq/L | PL (72 h, time 3 day): 166.4 mg/dL | RALB (72 h, time 3 day): 3.2 g/dL | TBIL (72 h, time 3 day): 0.012 mg/dL | TC (72 h, time 3 day): 78.8 mg/dL | TG (72 h, time 3 day): 150 mg/dL | TP (72 h, time 3 day): 5.7 g/dL | gamma-GTP (72 h, time 3 day): 1.6 IU/L | TERMINAL_BW ([…], time 7 day): 256.2 g | TERMINAL_BW ([…], time 14 day): 297 g | TERMINAL_BW ([…], time 28 day): 360.9 g | APTT ([…], time 7 day): 26.4 s | Bas ([…], time 7 day): 0% | Eos ([…], time 7 day): 0.8% | Fbg ([…], time 7 day): 275.2 mg/dL | Hb ([…], time 7 day): 13.7 g/dL | Ht ([…], time 7 day): 39.4% | Lym ([…], time 7 day): 83.6% | MCH ([…], time 7 day): 20.8 pg | MCHC ([…], time 7 day): 34.8% | MCV ([…], time 7 day): 59.8 fL | Mono ([…], time 7 day): 1.6% | Neu ([…], time 7 day): 13.2% | PT ([…], time 7 day): 15.8 s | Plat ([…], time 7 day): 125.2 x10_4/uL | RBC ([…], time 7 day): 660.2 x10_4/ul | Ret ([…], time 7 day): 4.6% | WBC ([…], time 7 day): 81.8 x10_2/uL | APTT ([…], time 14 day): 28.5 s | Bas ([…], time 14 day): 0% | Eos ([…], time 14 day): 0.8% | Fbg ([…], time 14 day): 290.2 mg/dL | Hb ([…], time 14 day): 13.4 g/dL | Ht ([…], time 14 day): 38.1% | Lym ([…], time 14 day): 76.2% | MCH ([…], time 14 day): 20 pg | MCHC ([…], time 14 day): 35.1% | MCV ([…], time 14 day): 56.9 fL | Mono ([…], time 14 day): 2.6% | Neu ([…], time 14 day): 19.8% | PT ([…], time 14 day): 15.9 s | Plat ([…], time 14 day): 103.9 x10_4/uL | RBC ([…], time 14 day): 671.4 x10_4/ul | Ret ([…], time 14 day): 3.9% | WBC ([…], time 14 day): 101 x10_2/uL | APTT ([…], time 28 day): 37.3 s | Bas ([…], time 28 day): 0% | Eos ([…], time 28 day): 0.8% | Fbg ([…], time 28 day): 283 mg/dL | Hb ([…], time 28 day): 13.8 g/dL | Ht ([…], time 28 day): 38.6% | Lym ([…], time 28 day): 76.4% | MCH ([…], time 28 day): 19.6 pg | MCHC ([…], time 28 day): 35.7% | MCV ([…], time 28 day): 54.9 fL | Mono ([…], time 28 day): 2% | Neu ([…], time 28 day): 19.8% | PT ([…], time 28 day): 17.3 s | Plat ([…], time 28 day): 116.5 x10_4/uL | RBC ([…], time 28 day): 704 x10_4/ul | Ret ([…], time 28 day): 2.7% | WBC ([…], time 28 day): 133 x10_2/uL | KIDNEY_L ([…], time 7 day): 1.1 g | KIDNEY_R ([…], time 7 day): 1.1 g | KIDNEY_TOTAL ([…], time 7 day): 2.2 g | KIDNEY_L ([…], time 14 day): 1.2 g | KIDNEY_R ([…], time 14 day): 1.2 g | KIDNEY_TOTAL ([…], time 14 day): 2.4 g | KIDNEY_L ([…], time 28 day): 1.4 g | KIDNEY_R ([…], time 28 day): 1.4 g | KIDNEY_TOTAL ([…], time 28 day): 2.8 g | LIVER ([…], time 7 day): 11.7 g | LIVER ([…], time 14 day): 14.1 g | LIVER ([…], time 28 day): 15.1 g | A/G ([…], time 7 day): 1.2 | ALP ([…], time 7 day): 1900.8 IU/L | ALT ([…], time 7 day): 48.4 IU/L | AST ([…], time 7 day): 82 IU/L | BUN ([…], time 7 day): 17.2 mg/dL | CRE ([…], time 7 day): 0.2 mg/dL | Ca ([…], time 7 day): 10.5 mg/dL | Cl ([…], time 7 day): 108.8 meq/L | DBIL ([…], time 7 day): 0.002 mg/dL | GLC ([…], time 7 day): 191 mg/dL | IP ([…], time 7 day): 6.6 mg/dL | K ([…], time 7 day): 4.4 meq/L | LDH ([…], time 7 day): 208.2 IU/L | Na ([…], time 7 day): 143 meq/L | PL ([…], time 7 day): 148.6 mg/dL | RALB ([…], time 7 day): 3 g/dL | TBIL ([…], time 7 day): 0.002 mg/dL | TC ([…], time 7 day): 71.4 mg/dL | TG ([…], time 7 day): 175.2 mg/dL | TP ([…], time 7 day): 5.5 g/dL | gamma-GTP ([…], time 7 day): 1 IU/L | A/G ([…], time 14 day): 1.2 | ALP ([…], time 14 day): 1990.8 IU/L | ALT ([…], time 14 day): 49.4 IU/L | AST ([…], time 14 day): 83.8 IU/L | BUN ([…], time 14 day): 17.4 mg/dL | CRE ([…], time 14 day): 0.2 mg/dL | Ca ([…], time 14 day): 10.5 mg/dL | Cl ([…], time 14 day): 108.2 meq/L | DBIL ([…], time 14 day): 0 mg/dL | GLC ([…], time 14 day): 198.6 mg/dL | IP ([…], time 14 day): 5.9 mg/dL | K ([…], time 14 day): 4.2 meq/L | LDH ([…], time 14 day): 269 IU/L | Na ([…], time 14 day): 142.8 meq/L | PL ([…], time 14 day): 172.6 mg/dL | RALB ([…], time 14 day): 3 g/dL | TBIL ([…], time 14 day): 0.002 mg/dL | TC ([…], time 14 day): 74.4 mg/dL | TG ([…], time 14 day): 312 mg/dL | TP ([…], time 14 day): 5.6 g/dL | gamma-GTP ([…], time 14 day): 1.2 IU/L | A/G ([…], time 28 day): 1 | ALP ([…], time 28 day): 1673.8 IU/L | ALT ([…], time 28 day): 56.6 IU/L | AST ([…], time 28 day): 79.8 IU/L | BUN ([…], time 28 day): 16.2 mg/dL | CRE ([…], time 28 day): 0.2 mg/dL | Ca ([…], time 28 day): 10.1 mg/dL | Cl ([…], time 28 day): 108 meq/L | DBIL ([…], time 28 day): 0 mg/dL | GLC ([…], time 28 day): 183.4 mg/dL | IP ([…], time 28 day): 6.2 mg/dL | K ([…], time 28 day): 4.2 meq/L | LDH ([…], time 28 day): 138.4 IU/L | Na ([…], time 28 day): 141 meq/L | PL ([…], time 28 day): 145 mg/dL | RALB ([…], time 28 day): 2.9 g/dL | TBIL ([…], time 28 day): 0.026 mg/dL | TC ([…], time 28 day): 66.6 mg/dL | TG ([…], time 28 day): 203.4 mg/dL | TP ([…], time 28 day): 5.7 g/dL | gamma-GTP ([…], time 28 day): 1.2 IU/L
